Experimental data: PMC10714399, “Open Source Antibiotics: Simple Diarylimidazoles Are Potent against Methicillin-Resistant Staphylococcus aureus” (ACS Infectious Diseases, 2023)
Values after ≈ are worked out from the molar mass of the structure shown. Read-outs that look alike come from different tables or passages of the source.

Tests used:
[1] = system: Staphylococcus aureus NCTC 13373 (mecA-positive; methicillin-resistant); assay: In vitro antibacterial activity, MIC (UCL School of Pharmacy assay), MRSA; type: cell-based; conditions: for MIC: Staphylococcus aureus
Outline: (§1)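 Each organism was taken from overnight tryptone soya agar, suspended in PBS at A600 0.1, diluted 1:100 in isosensitest broth and added to serially diluted compound (32 to 0.03 μg/mL).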

[2] = system: Enterococcus faecalis ATCC 51299 (vanA-positive; vancomycin-resistant); assay: In vitro antibacterial activity, MIC (UCL), VRE; type: cell-based
Procedure: Staphylococcus aureus NCTC 13373 (mecA-positive; methicillin-resistant, NCTC 13373) was supplied by the National Collection of Type Cultures (NCTC), Public Health England, United Kingdom. Other organisms, S. aureus ATCC 25923 (methicillin-susceptible) and Enterococcus faecalis ATCC 51299 (vanA-positive; vancomycin-resistant), were obtained from the American Type Culture Collection (ATCC) via LGC Standards, UK. A suspension of each organism was prepared from an overnight plate culture (tryptone soya agar) in phosphate-buffered saline (PBS) and adjusted to an absorbance reading at 600 nm of 0.1, which is approximately equivalent to 1 × 10^8 colony-forming units (CFU) per mL. The cultures were further diluted 1:100 in isosensitest broth (Oxoid, United Kingdom) before 100 μL was used to inoculate each well of a 96-well plate that contained diluted samples of the OSA series. Compounds were evaluated over a 2-fold dilution range from 32 to 0.03 μg/mL. Stocks of the samples were prepared in 100% DMSO at […] before being diluted in isosenstitest broth. The highest concentration of DMSO present was 2%, which has been previously shown not to inhibit the growth of the microorganisms (data not shown). […] Vancomycin was used as a quality control compound.

[3] = system: MRC-5SV2 (human lung fibroblast cell line); assay: Toxicity against MRC-5SV2; type: cell-based
Procedure: (§2) ADME and toxicity for compounds were measured according to procedures outlined in the manuscript submitted in parallel to this one;2 other procedures were used for those compounds analysed by Monash University (in vitro ADME) or UCL (toxicity), both described in the main

[4] = system: PMM (primary mouse macrophages); assay: Toxicity against PMM; type: cell-based
Procedure: as §2

Aqueous solubility = type: physicochemical; conditions: for solubility: thermodynamic from solid
Text: To guide our initial SAR exploration work, we obtained liver microsomal intrinsic clearance data for 5 of the 18 compounds assayed by CO-ADD (Supporting Information - CDCO Report and Supporting Information - Biology). We then acquired intrinsic clearance (CLint), plasma protein binding (PPB), and solubility data on further compounds throughout the SAR campaign (Supporting Information - Biology, Tables S3 and S4). […] The more polar compounds (lower LogD) had reduced PPB and were more metabolically stable.
(§3) Table S4. ADME and Pharmacokinetics: compounds only appearing in the Supplementary […]
(§4) MRSA Aqueous HLM CLint Rat Hep CLint
(§5) Cmpd MIC Solubility Human PPB (%) (µL/min/mg (µL/min/10x6 LogD7.4
(§6) (µg/mL) (µM) protein) cells)
as §2

[5] = Human plasma protein binding (PPB); type: in vitro ADME; conditions: human, plasma
Text: (§7) To guide our initial SAR exploration work, we obtained liver microsomal intrinsic clearance data for 5 of the 18 compounds assayed by CO-ADD (Supporting Information - CDCO Report and Supporting Information - Biology). We then acquired intrinsic clearance (CLint), plasma protein binding (PPB), and solubility data on further compounds throughout the SAR campaign (Supporting Information - Biology, Tables S3 and S4).
as §3, §4, §5, §6, §2

[6] = Human liver microsome intrinsic clearance; type: in vitro ADME
Text: as §7, §3, §4, §5, §6, §2

[7] = Rat hepatocyte intrinsic clearance; type: in vitro ADME; conditions: for Rat Hep CLint (NEU): rat hepatocytes; for hepatocyte CLint: rat, hepatocytes, Figure 4, read-out: Rat Hep CLint
Text: as §7, §3, §4, §5, §6, §2

[8] = system: S. aureus ATCC 25923 (methicillin-susceptible); assay: In vitro antibacterial activity, MIC (UCL), MSSA; type: cell-based, Staphylococcus aureus; conditions: Staphylococcus aureus; read-out: MSSA MIC (UCL)
Outline: as §1

[9] = human plasma, NEU, read-out: Human PPB (NEU) (converted)
[10] = NEU, read-out: Aqueous Solubility (NEU)
[11] = read-out: Human PPB (converted)
[12] = human, liver microsomes, read-out: HLM CLint

Compound | MIC ([1]; UCL, read-out: MRSA MIC (UCL)) [µg/mL] | MIC ([2]; read-out: VRE MIC (UCL)) [µg/mL] | fraction unbound [5, 9] | HLM CLint (NEU) ([6]; human liver microsomes, NEU) [uL/min/mg protein] | Rat Hep CLint (NEU) [7] [uL/min/10x6 cells] | MIC ([1]; read-out: MRSA MIC) [µg/mL] | MIC ([2]; read-out: VRE MIC) [µg/mL] | MRC5 TC50 [3] [µg/mL] | PMM TC50 [4] [µg/mL] | solubility (Aqueous solubility; [10]) [µM] | other results
Fc1cccc(-c2c(-c3ccccn3)nc3n2CCC3)c1 [OSA_000872] | > 32 | > 32 |  |  |  |  |  |  |  |  | MRC5 TC50 ([3]; MRC5 cells): 7.2 µM; PMM TC50 ([4]; PMM): 54.63 µM
CN(C)C(=O)c1ccc(-c2c(-c3ccccn3)nc3n2CCC3)cc1 [OSA_000974] | > 32 | > 32 | 0.55 | <3 | <1 |  |  |  |  |  | Aqueous Solubility (NEU) (Aqueous solubility; NEU): 782 µM
Fc1cccc(-c2c(-c3ccccn3)nc3n2CCC3)c1 [compound 872] |  |  |  |  |  | > 32 | > 32 | 2.0 | 15.3 |  | MRSA MIC [1]: 32 µg/mL
[2H]C([2H])([2H])N(c1ccc(F)cc1)c1c(-c2ccccn2)nc2ccccn12 [OSA_001002] | 16 (≈ 49.8 µM) |  |  |  |  |  |  |  |  | 116 (≈ 37.3 µg/mL) | MIC [8]: 16 µg/mL (≈ 49.8 µM)
Clc1ccc(-c2c(-c3ccccn3)nc3n2CCC3)cc1 [OSA_000875] | 4 (≈ 13.5 µM) | 16 (≈ 54.1 µM) | 0.033 |  | 21.9 |  |  |  |  | 4 (≈ 1.18 µg/mL) | microsomal CLint ([6]; human liver microsomes, NEU, read-out: HLM CLint (NEU)): 168 µL/min/mg; MRC5 TC50 ([3]; MRC5 cells): 5.45 µM; PMM TC50 ([4]; PMM): 8 µM
COc1ccn2c(-c3ccc(F)cc3)c(-c3ccccn3)nc2c1 [compound 858] |  |  |  |  |  |  |  | 1.2 | 2.6 |  | MRSA MIC [1]: 16 µg/mL; VRE MIC [2]: > 32 µg/mL
Cc1nc2cc(-c3c(-c4ccccn4)nc4n3CCC4)ccc2s1 [OSA_000836] | 32 (≈ 96.3 µM) |  | 0.098 | 34.1 | 49.1 |  |  |  |  | 10 (≈ 3.32 µg/mL) | 
Clc1ccc(-c2c(-c3ccccn3)nc3n2CCC3)cc1 [compound 875] |  |  |  |  |  | 4 (≈ 13.5 µM) | 16 (≈ 54.1 µM) | 1.6 | 2.4 |  | 
Cc1cccc(-c2c(-c3ccccn3)nc3n2CCC3)c1 [OSA_000976] | 8 (≈ 29.1 µM) | 32 (≈ 116 µM) | 0.061 | 76.1 | 62.5 |  |  |  |  | 556 (≈ 153 µg/mL) | 
N#Cc1cccc(-c2c(-c3ccccn3)nc3n2CCC3)c1 [OSA_000864] | > 32 | > 32 | 0.24 | 43.7 | 23.2 |  |  |  |  | 37 (≈ 10.6 µg/mL) | 
COc1ccn2c(-c3ccccc3)c(-c3ccccn3)nc2c1 [compound 860] |  |  |  |  |  |  |  | 1.2 | 2.4 |  | MRSA MIC [1]: 8 µg/mL; VRE MIC [2]: 32 µg/mL
C[S+]([O-])c1ccc(-c2c(-c3ccccn3)nc3n2CCC3)cc1 (stereo not shown) [compound 838] |  |  |  |  |  | > 32 | > 32 |  |  |  | MIC ([1]; 16 h, read-out: MRSA MIC): > 32 µg/mL; solubility (Aqueous solubility; read-out: Aqueous Solubility): 756 µM (≈ 245 µg/mL); fraction unbound [5, 11]: 0.45; microsomal CLint [6, 12]: < 3 µL/min/mg; hepatocyte CLint [7]: < 1 µL/min/1e6 cells
CS(=O)(=O)c1ccc(-c2c(-c3ccccn3)nc3n2CCC3)cc1 [compound 837] |  |  |  |  |  | > 32 | > 32 |  |  |  | activity against MRSA, in words [1]: not tolerated; MIC ([1]; 16 h, read-out: MRSA MIC): > 32 µg/mL; solubility (Aqueous solubility; read-out: Aqueous Solubility): 317 µM (≈ 108 µg/mL); fraction unbound [5, 11]: 0.4; microsomal CLint [6, 12]: < 3 µL/min/mg; hepatocyte CLint [7]: < 1 µL/min/1e6 cells
